Assay results reported in ChEMBL document CHEMBL1133038, “New quinolinic derivatives as centrally active antioxidants” (Bioorg Med Chem Lett, 2000).

What was measured:
HT-22 [1] = assay: The minimum tolerated concentration by MTT reduction assay in HT-22 hippocampal cell line.; type: functional, Mus musculus
HT-22 [2] = assay: The concentration producing 50% protection against L-HCA-mediated neurotoxicity in HT-22 hippocampal cell line.; type: functional, Mus musculus
HT-22 [3] = assay: The concentration producing 50% toxicity in HT-22 hippocampal cell line.; type: functional; settings: Mus musculus, read-out: TC50 (the source's name)
Mus musculus [4] = assay: Body temperature of NMRI mice after 30 minutes of intraperitoneal administration of 150 mg/kg compound.; type: functional
Mus musculus [5] = assay: Percent survival of NMRI mice after 5 hours of intraperitoneal administration of 150 mg/kg of compound.; type: functional; settings: ip
HT-22 [6] = assay: Safety ratio of MTC to that of PC50; type: functional, Mus musculus
Mus musculus [7] = assay: The compound was tested for % survival of NMRI mice after 5 hours of intraperitoneal administration of 150 mg/kg of dose; 30/60; type: functional; settings: ip
[8] = Safety ratio of MTC to that of PC50; Not relevant; type: toxicity

| Molecule | MTC (HT-22 [1]) [µM] | PC50 (HT-22 [2]) [µM] | CC50 (HT-22 [3]) [µM] | change in body temperature (Mus musculus [4]) [°C] | survival at 150 mg/kg (Mus musculus [5]) [%] | Ratio (HT-22 [6]) | MTC (HT-22 [1]; Mus musculus) [µM] | PC50 (HT-22 [2]; Mus musculus) [µM] | Ratio (HT-22 [6]; Mus musculus) | survival at 150 mg/kg (Mus musculus [7]) [%] | Ratio [8] |
| --- | --- | --- | --- | --- | --- | --- | --- | --- | --- | --- | --- |
| CC(C)(C)Oc1ccc2c(c1)C=CC1(CCCCC1)N2 | 10 | 0.13 | 13.2 | -0.2 | 30 | 77 |  |  |  |  |  |
| VITAMIN E |  |  |  |  |  |  | > 200 | 0.8 | > 250 |  |  |
| CCOc1c(C)c(C)c2c(c1C)C=CC1(CCCCC1)N2 | 10 | 0.17 | 17.8 | -0.8 | 50 | 59 |  |  |  |  |  |
| CCOc1c(C(C)C)cc2c(c1C(C)C)CCC(C)(C)N2 | 10 | 0.06 | 18.2 | -0.5 | 40 | 167 |  |  |  |  |  |
| CCOc1c(C)c(C)c2c(c1C)C=CC(C)(C)N2 | 50 | 0.46 | 123 | -2.5 | 70 | 109 |  |  |  |  |  |
| CC(C)(C)C(=O)Oc1ccc2c(c1)C=CC1(CCCCC1)N2 | 1 | 0.73 | 1.61 | -2.8 | 30 | 1.4 |  |  |  |  |  |
| CCOc1c(C(C)(C)C)cc2c(c1C(C)(C)C)C=CC(C)(C)N2 | 25 | 0.1 | 36.5 | -1 | 60 | 250 |  |  |  |  |  |
| CCOc1c(C)cc2c(c1C)C=CC1(CCCCC1)N2 | 10 | 0.03 | 19.3 | -0.3 | 70 | 333 |  |  |  |  |  |
| CCOc1cccc2c1NC(C)(C)C=C2 | 100 | 1 | 200 |  |  | 100 |  |  |  |  |  |
| CCOc1ccc2c(c1)CCC1(CCCCC1)N2 | 25 | 0.16 | 74.5 | -0.7 | 60 | 156 |  |  |  |  |  |
| COc1ccc2c(c1)C=CC1(CCCCC1)N2 | 5 | 0.49 | 46.9 | -1 | 100 | 10 |  |  |  |  |  |
| CCOc1c(C)cc2c(c1C)CCC1(CCCCC1)N2 | 10 | 0.01 | 17.6 | -2.2 | 80 | 1000 |  |  |  |  |  |
| CCOc1ccc2c(c1)C=CC1(CCN(CC3CC3)CC1)N2 | 200 | 0.77 | 200 |  |  | 260 |  |  |  |  |  |
| CCOc1ccc2c(c1)C(C)CC(C)(C)N2 (stereo not drawn) | 50 | 0.86 | 137 |  |  | 58 |  |  |  |  |  |
| CCOc1c(C)c(C)c2c(c1C)CCC1(CCCCC1)N2 | 10 | 0.15 | 17.2 | -0.8 | 60 | 67 |  |  |  |  |  |
| CCOc1ccc2c(c1)C=CC1(CCCCC1)N2 | 5 | 0.18 | 17.1 | -0.2 | 80 | 28 |  |  |  |  |  |
| CCOc1c(C)cc2c(c1C)CCC(C)(C)N2 | 100 | 0.16 | 186 | -0.5 | 80 | 625 |  |  |  |  |  |
| CC(C)(C)/[N+]([O-])=C/c1ccccc1 | >200 | >200 |  | -2.1 |  |  |  |  |  | 50 | Not relevant |
| CC1=NN(c2ccccc2)C(=O)C1 [EDARAVONE] | 200 | 70.4 | > 200 | -2.4 | 80 | 2.8 |  |  |  |  |  |
| CCOc1c(C(C)C)cc2c(c1C(C)C)C=CC(C)(C)N2 | 10 | 0.07 | 200 | -0.05 | 50 | 143 |  |  |  |  |  |
| CCOc1c(C)c(C)c2c(c1C)CCC(C)(C)N2 | 50 | 0.2 | 128 | -0.2 | 100 | 250 |  |  |  |  |  |
| C1=CC2(CCCCC2)Nc2ccc(Oc3ccccc3)cc21 | 10 | 4.75 | 11.2 |  |  | 2.1 |  |  |  |  |  |
| O=c1c2ccccc2[se]n1-c1ccccc1 [EBSELEN] | 10 | 1 | 20 | -1.85 | 20 | 10 |  |  |  |  |  |
| CCOc1c(C)cc2c(c1C)C=CC(C)(C)N2 | 50 | 0.35 | 182 | -0.9 | 100 | 143 |  |  |  |  |  |
| CCOc1cccc2c1NC1(C=C2)CCCCC1 | 10 | 0.37 | 17.9 | -1 | 60 | 27 |  |  |  |  |  |
| CCOc1c(C(C)C)cc2c(c1C(C)C)C=CC1(CCCCC1)N2 | 10 | 0.12 | 16.9 |  |  | 83 |  |  |  |  |  |
| CCOc1ccc2c(c1)C(C)=CC(C)(C)N2 [E324] | 50 | 0.41 | 103 | -1.85 | 80 | 122 |  |  |  |  |  |
| CCOc1ccc2c(c1)C=CC(C)(C)N2 | 25 | 0.19 | 56 | -1.7 | 100 | 132 |  |  |  |  |  |
| CCOc1ccc2c(c1)C=CC1(CCNCC1)N2 | 10 | 0.51 | 139 |  |  | 20 |  |  |  |  |  |
